The values that follow come from article PMC10685318, “Trans-cyclosulfamidate mannose-configured cyclitol allows isoform-dependent inhibition of GH47 α-D-mannosidases through a bump–hole strategy” (Chemical Science, 2023).

pIC50: −log10 of the molar value. Bounds are passed on as bounds.

For this experiment, the target named is T1, MAN2A2 (Homo sapiens, UniProt P49641).
T1 construct: expressed in transfected cells
T1 sequence (P49641 1-1150): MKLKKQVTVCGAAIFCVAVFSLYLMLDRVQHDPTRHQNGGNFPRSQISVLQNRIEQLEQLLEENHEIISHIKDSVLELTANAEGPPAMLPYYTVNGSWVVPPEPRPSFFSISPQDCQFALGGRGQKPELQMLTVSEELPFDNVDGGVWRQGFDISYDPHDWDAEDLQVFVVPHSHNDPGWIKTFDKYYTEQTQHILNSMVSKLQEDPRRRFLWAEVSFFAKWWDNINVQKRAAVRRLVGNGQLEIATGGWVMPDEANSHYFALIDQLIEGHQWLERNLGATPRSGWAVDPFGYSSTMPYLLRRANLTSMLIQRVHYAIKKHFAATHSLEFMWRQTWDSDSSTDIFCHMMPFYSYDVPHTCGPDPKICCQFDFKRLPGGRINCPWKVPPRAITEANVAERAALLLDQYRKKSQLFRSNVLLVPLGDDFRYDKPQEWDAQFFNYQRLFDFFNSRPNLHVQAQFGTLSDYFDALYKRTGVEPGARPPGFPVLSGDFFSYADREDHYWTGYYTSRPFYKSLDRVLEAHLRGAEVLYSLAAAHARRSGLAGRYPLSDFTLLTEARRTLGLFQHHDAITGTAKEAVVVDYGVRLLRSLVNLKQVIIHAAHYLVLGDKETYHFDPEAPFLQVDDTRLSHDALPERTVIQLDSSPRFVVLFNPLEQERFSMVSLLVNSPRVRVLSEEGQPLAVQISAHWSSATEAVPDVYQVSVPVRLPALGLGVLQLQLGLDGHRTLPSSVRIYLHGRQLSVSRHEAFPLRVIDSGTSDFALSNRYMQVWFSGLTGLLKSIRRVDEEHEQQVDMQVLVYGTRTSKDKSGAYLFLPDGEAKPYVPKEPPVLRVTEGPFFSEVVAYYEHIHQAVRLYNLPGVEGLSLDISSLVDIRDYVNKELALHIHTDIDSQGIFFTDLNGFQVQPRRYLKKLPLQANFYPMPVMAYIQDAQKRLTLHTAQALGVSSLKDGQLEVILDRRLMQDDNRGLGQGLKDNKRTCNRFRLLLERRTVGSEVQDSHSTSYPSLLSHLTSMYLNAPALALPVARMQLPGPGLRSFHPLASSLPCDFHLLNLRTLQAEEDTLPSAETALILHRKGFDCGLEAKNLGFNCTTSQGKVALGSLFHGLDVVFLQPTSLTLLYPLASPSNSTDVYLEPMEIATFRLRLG
Kind of experiment: 4-MU-α-man activity assay in overexpressed cell lysates. The experiment is classed as biochemical.

For `O=S1(=O)N[C@@H]2[C@@H](O)[C@@H](O)[C@H](O)[C@@H](CO)[C@H]2O1` [compound 6, 1,6-trans-manno-cyclosulfamidate], the “activity when the buffer was enriched with CoCl2” value (CoCl2) was “no activity”. Under “Zn2+”, the pIC50 was < 3.00.
